Assays:
[1] = In vitro free radical (DPPH) scavenging antioxidant potency; format: biochemical; conditions: for 50% Radical scavenging concentration: DPPH radical, tris-HCl buffer pH 7.4, 45 minutes in dark, absorbency at 517 nm, triplicate
Procedure: Antioxidant activity of the compounds was tested for its capacity/potency to scavenge most widely used free radical, 1,1-diphenyl-2-picryl hyrazyl radical (DPPH). […] 200 μl of test compounds were reconstituted to 1 ml in tris-HCl buffer (pH 7.4). […] After incubation for 45 minutes in dark, the absorbency at 517 nm was recorded. Percent radical scavenging activity was calculated accordingly. All the readings were taken in triplicate.

[2] = system: Cyclic AMP phosphodiesterase; conditions: known activity, Chem. Pharm. Bull, 1981, 29, 3586-92; cited from earlier work
[3] = known activity, Chem. Pharm. Bull, 1986, 34, 3514-17; cited from earlier work

| Structure (SMILES) | 50% Radical scavenging concentration [1] [µg/mL] | Antioxidant activity compared with reference drugs Probucol and alpha-tocopherol ([1]; comparison in words) | Cyclic AMP phosphodiesterase inhibition [2] | Ca^2+ antagonist activity [3] |
| --- | --- | --- | --- | --- |
| COc1cc([C@H]2c3cc(O)c(OC)cc3C[C@@](O)(CO)[C@@H]2CO)ccc1O [(+)-Cycloolivil] | 21.74 | better than the above mentioned reference drugs | inhibition | Ca^2+ antagonist activity |
| Cc1c(C)c2c(c(C)c1O)CCC(C)(CCCC(C)CCCC(C)CCCC(C)C)O2 (stereo not drawn) [DL α-Tocopherol, reference compound] | 47.80 |  |  |  |

Source: patent US6562381B2, “(+)-Cycloolivil as antioxidant obtained from natural source namely stereospermum personatum” (Council of Scientific and Industrial Research, priority 2001, dated 2003)
